The text below walks through data of article PMC10797613 (ACS Chemical Neuroscience, 2024).

Assay [1] has as its system C57BL/6J mice. The assay is described as follows: mouse head twitch response. In kind it is in vivo. Particulars: for time of peak HTR effects / Emax(HTR events/30 min) / ED50(mg/kg s.c.) for HTR: mice; for time of peak HTR effects: post drug administration; for Emax(HTR events/30 min) / ED50(mg/kg s.c.) for HTR: s.c.; for Emax(HTR events/30 min): maximum effect; for ED50(mg/kg s.c.) for HTR: 30 min session, ascending phase of HTR curve; for HTR activity (in words): mouse, in vivo.

Assay [2] concerns the target H1 (Homo sapiens, UniProt P35367). The assay is described as follows: biochemical. In kind it is binding.
The target of assay [3] is 5-HT2B receptor (Homo sapiens, UniProt P41595). Put plainly: Gαq-mediated calcium flux assay. The following applies: 95% CI in brackets; * = potentially ambiguous. The class given is cell-based.
Sequence of 5-HT2B receptor (P41595 whole entry): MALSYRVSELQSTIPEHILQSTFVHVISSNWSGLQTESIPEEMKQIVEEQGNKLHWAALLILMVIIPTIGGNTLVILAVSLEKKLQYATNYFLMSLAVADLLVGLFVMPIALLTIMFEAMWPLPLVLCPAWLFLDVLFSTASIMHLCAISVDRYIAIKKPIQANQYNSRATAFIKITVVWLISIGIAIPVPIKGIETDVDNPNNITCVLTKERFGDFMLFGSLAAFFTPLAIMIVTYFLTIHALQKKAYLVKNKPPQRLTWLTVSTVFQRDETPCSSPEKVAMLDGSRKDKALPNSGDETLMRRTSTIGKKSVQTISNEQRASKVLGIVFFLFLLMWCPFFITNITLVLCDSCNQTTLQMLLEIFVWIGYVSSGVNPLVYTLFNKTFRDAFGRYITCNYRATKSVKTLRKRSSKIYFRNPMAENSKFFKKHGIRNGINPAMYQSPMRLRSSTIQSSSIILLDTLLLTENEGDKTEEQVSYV
In assay [4] the test system is C57BL/6J mice. The assay is described as follows: locomotor activity. In kind it is in vivo, mouse. The following applies: s.c., 30 min testing session.
In assay [5] the target is 5-HT2A receptor (Homo sapiens, UniProt P28223). The assay is described as follows: Gαq-mediated calcium flux assay. In kind it is cell-based. The following applies: read-out: Emax (% 5-HT) 5-HT2A calcium flux, 95% CI in brackets.
Sequence of 5-HT2A receptor (P28223 whole entry): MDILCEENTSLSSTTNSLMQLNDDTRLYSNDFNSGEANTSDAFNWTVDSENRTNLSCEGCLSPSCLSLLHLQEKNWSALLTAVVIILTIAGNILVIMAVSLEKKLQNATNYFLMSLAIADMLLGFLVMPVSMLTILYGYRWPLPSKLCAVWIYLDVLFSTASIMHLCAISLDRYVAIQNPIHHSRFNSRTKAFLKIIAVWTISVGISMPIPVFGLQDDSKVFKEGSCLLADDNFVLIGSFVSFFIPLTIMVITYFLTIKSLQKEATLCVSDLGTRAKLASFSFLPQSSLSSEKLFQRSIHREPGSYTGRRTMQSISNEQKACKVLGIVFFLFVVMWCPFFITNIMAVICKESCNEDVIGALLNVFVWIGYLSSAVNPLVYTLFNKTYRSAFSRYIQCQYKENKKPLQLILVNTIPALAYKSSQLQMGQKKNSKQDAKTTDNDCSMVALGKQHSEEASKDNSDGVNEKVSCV
Assay [6] addresses T1, 5-HT2C receptor (Homo sapiens, UniProt P28335).
T1 sequence (P28335 33-458): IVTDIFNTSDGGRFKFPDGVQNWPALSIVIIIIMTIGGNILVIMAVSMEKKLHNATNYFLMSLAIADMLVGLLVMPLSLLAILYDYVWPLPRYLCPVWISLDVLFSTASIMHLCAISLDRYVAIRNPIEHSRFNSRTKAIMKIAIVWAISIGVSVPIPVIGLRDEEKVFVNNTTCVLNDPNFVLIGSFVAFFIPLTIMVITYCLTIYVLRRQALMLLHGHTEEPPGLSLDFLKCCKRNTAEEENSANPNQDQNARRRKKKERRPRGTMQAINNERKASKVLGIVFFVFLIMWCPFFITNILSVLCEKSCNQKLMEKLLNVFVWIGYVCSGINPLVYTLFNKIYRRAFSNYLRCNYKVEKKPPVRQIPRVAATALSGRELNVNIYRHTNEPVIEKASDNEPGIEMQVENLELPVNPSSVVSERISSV
Put plainly: Gαq-mediated calcium flux assay. The class given is cell-based.

Assay [7] deals with 5-HT1B (Homo sapiens, UniProt P28222). Put plainly: GPCR Tango assay measuring β-arrestin recruitment. In kind it is cell-based. The following applies: up to 50 μM.
Sequence of 5-HT1B (P28222 whole entry): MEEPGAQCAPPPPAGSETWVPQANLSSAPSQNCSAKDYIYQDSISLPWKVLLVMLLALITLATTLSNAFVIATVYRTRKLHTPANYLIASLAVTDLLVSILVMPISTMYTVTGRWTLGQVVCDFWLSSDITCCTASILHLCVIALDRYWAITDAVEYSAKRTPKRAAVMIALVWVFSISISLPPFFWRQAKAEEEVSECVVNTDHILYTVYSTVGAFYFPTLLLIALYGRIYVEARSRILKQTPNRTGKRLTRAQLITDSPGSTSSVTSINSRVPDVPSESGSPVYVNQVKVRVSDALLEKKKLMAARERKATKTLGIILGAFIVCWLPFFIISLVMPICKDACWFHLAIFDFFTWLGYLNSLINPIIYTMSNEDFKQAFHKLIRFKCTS
The test system of assay [8] is C57BL/6J mice. The assay is described as follows: body temperature change from pre to post session in mice. Particulars: highest dose tested. In kind it is in vivo, mouse.
Assay [9] concerns the target 5-HT7A (Homo sapiens, UniProt P34969). Put plainly: GPCR Tango assay measuring β-arrestin recruitment. In kind it is cell-based. Particulars: EC50 5-HT7A Tango, 95% CI in brackets; * = ambiguous.
Assay [10] has as its system C57BL/6J mice. The following applies: cited from earlier work.
Setting [11] is: s.c., identical testing conditions.

“And” between values parts separate entries of the source, which are not always exact repeats. Identical values can stand only once. Like-named read-outs stand apart in the source and are kept apart here.

Sequence of H1 (P35367 whole entry): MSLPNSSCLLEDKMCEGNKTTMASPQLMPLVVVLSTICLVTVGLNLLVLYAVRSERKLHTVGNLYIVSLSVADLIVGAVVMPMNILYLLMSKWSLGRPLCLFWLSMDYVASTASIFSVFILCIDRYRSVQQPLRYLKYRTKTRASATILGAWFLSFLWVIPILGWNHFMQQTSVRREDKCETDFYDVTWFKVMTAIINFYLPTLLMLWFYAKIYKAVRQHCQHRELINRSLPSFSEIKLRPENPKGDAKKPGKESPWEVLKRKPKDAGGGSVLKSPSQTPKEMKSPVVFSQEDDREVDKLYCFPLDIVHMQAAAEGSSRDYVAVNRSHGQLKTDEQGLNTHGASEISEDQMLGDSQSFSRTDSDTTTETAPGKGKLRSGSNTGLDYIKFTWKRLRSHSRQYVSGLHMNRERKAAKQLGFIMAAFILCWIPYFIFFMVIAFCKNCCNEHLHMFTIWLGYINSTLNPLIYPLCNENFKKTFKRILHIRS
Sequence of 5-HT7A (P34969 1-445 isoform P34969-2): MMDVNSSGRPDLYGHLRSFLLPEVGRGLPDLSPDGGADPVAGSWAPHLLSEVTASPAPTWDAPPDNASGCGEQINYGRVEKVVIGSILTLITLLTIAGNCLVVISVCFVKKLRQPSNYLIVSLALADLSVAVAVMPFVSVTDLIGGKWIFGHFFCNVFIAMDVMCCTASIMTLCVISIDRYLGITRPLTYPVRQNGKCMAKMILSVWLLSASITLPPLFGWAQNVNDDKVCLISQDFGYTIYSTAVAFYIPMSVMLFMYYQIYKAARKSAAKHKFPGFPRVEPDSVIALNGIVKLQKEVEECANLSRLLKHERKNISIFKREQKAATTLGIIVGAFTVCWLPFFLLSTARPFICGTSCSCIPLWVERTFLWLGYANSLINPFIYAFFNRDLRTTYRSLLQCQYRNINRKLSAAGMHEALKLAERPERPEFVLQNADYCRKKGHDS

For the molecule `C=CCNCCc1c[nH]c2cccc(O)c12.C=CCNCCc1c[nH]c2cccc(O)c12.O=C(O)/C=C/C(=O)O` [4-HO-NALT, 3-(2-(Allylamino)ethyl)-1H-indol-4-ol Hemifumarate], in [1], the “time of peak HTR effects” value lay within 5 to 15 min; the “Emax(HTR events/30 min)” value is 77 HTR events/30 min and 76.6 HTR events/30 min. Also, the affinity in [2], expressed as Ki, was 467 nM. Further, in assay [3], the “Emax (% 5-HT) 5-HT2B calcium flux” value is given as 88 % 5-HT.
Regarding `O=C(O)/C=C/C(=O)O.Oc1cccc2[nH]cc(CCNCc3ccccc3)c12` [4-HO-NBnT, 3-(2-(Benzylamino)ethyl)-1H-indol-4-ol Fumarate], the “decrease in HTR potency relative to psilocin” value in assay [1] (mg/kg basis) was determined as 10 fold. Further, in [1], the “time of peak HTR effects” value was 5 to 15 min and the “Emax(HTR events/30 min)” value was 26.1 HTR events/30 min. Besides, in [4], the “effect on locomotor activity (in words)” value is listed as “reduced the total locomotor activity”. Further, the Emax in assay [5] is 70%. In assay [3], the “Emax (% 5-HT) 5-HT2B calcium flux” value worked out at 11 % 5-HT.
Take `CCNCCc1c[nH]c2cccc(O)c12.CCNCCc1c[nH]c2cccc(O)c12.O=C(O)CCC(=O)O` [4-HO-NET, 3-(2-(Ethylamino)ethyl)-1H-indol-4-ol Hemisuccinate]: in [1] (at equivalent doses), the “delay of maximum HTR occurrence compared to 4-HO-NALT” value amounted to 10 min. In assay [1], the “time of peak HTR effects” value fell in the range of 15 to 25 min and the “Emax(HTR events/30 min)” value turned out to be 39.8 HTR events/30 min. For the same molecule, the “effect on locomotor activity (in words)” value in [4] is recorded as “reduced the total locomotor activity”.
As for `CCCNCCc1c[nH]c2cccc(O)c12.CCCNCCc1c[nH]c2cccc(O)c12.O=C(O)/C=C/C(=O)O` [4-HO-NPT, 3-(2-(Propylamino)ethyl)-1H-indol-4-ol Hemifumarate], in [1], the “time of peak HTR effects” value lay within 5 to 15 min; the “ED50(mg/kg s.c.) for HTR” value came out at 2.9 mg/kg; the “Emax(HTR events/30 min)” value is 52 HTR events/30 min and 52.1 HTR events/30 min. The “effect on locomotor activity (in words)” value in assay [4] is listed as “reduced the total locomotor activity”.
`O=C(O)/C=C/C(=O)O.Oc1cccc2[nH]cc(CCNC3CCCCC3)c12` [4-HO-NcHT, 3-(2-(Cyclohexylamino)ethyl)-1H-indol-4-ol Fumarate]: in [1], the “HTR activity (in words)” value was “inactive”. For the same molecule, the “5-HT2C functional activity (in words)” value in assay [6] is “inactive”. Besides, the “5-HT1B agonist activity Tango (in words)” value in [7] was “inactive”.
In the case of `CC(C)NCCc1c[nH]c2cccc(O)c12.O=C(O)/C=C/C(=O)O` [4-HO-NiPT, 3-(2-(Isopropylamino)ethyl)-1H-indol-4-ol Fumarate], in assay [1], the “time of peak HTR effects” value was in the range of 15 to 25 min; the “ED50(mg/kg s.c.) for HTR” value turned out to be 3.3 mg/kg; the “Emax(HTR events/30 min)” value was 27 HTR events/30 min and 27.5 HTR events/30 min. In assay [8], the “hypothermia Emax” value was −1.7 °C. Also, the “5-HT2C functional activity (in words)” value in assay [6] is “weak partial agonists”.
In the case of `CCCCNCCc1c[nH]c2cccc(O)c12.O=C(O)/C=C/C(=O)O` [4-HO-NnBT, 3-(2-(Butylamino)ethyl)-1H-indol-4-ol Fumarate], the “HTR activity (in words)” value in [1] is “inactive”. For the same molecule, the “effect on locomotor activity (in words)” value in assay [4] is on record as “reduced the total locomotor activity”. In addition, the “5-HT2C functional activity (in words)” value in assay [6] was “weak partial agonists”. This molecule gave an EC50 in assay [9] of 1000 nM.
As for `CC(C)(C)NCCc1c[nH]c2cccc(O)c12.CC(C)(C)NCCc1c[nH]c2cccc(O)c12.O=C(O)/C=C/C(=O)O` [4-HO-NtBT, 3-(2-(tert-Butylamino)ethyl)-1H-indol-4-ol Hemifumarate], the “HTR activity (in words)” value in assay [1] was “inactive”. In addition, the “5-HT2C functional activity (in words)” value in [6] was “inactive”. Further, the “5-HT1B agonist activity Tango (in words)” value in assay [7] was “inactive”.
Take `CNCCc1c[nH]c2cccc(O)c12` [norpsilocin, 4-hydroxy-N-methyltryptamine]: the “ED50(mg/kg s.c.) for HTR” value in [10] (setting [11]) is given as over 30 mg/kg. Moreover, the “HTR activity (in words)” value in assay [10] (same assay setup) was “failed to induce psychedelic-like HTR activity”.
As to `CN(C)CCc1c[nH]c2cccc(O)c12` [psilocin, 4-hydroxy-N,N-dimethyltryptamine], the “reported HTR ED50 potency” value in assay [10] is 0.11 to 0.17 mg/kg. For the same molecule, in assay [10] (setting [11]), the “ED50(mg/kg s.c.) for HTR” value is given as 0.11 mg/kg and the “Emax(HTR events/30 min)” value is on record as 23 HTR events/30 min.
